The record followed here is ChEMBL document CHEMBL1201862, “PubChem BioAssay data set” (2004).

Test systems include CAKI-1; DU-145; EKVX; HCC 2998; HCT-116; Hs-578T; MDA-MB-435; Malme-3M; NCI-H226; NCI-H522; OVCAR-3; OVCAR-5; RXF 393; SF-295; SK-MEL-2; SN12C; SNB-75; SR; U-251; UO-31.
Holding throughout (test): NCI-60 cell line screen, 48 h

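Protocol summary: plate cells (96-well), add compound at 5 concentrations, incubate 48 h, interpolate endpoints linearly. GI50 marks 50% less growth.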 Calls of active or inactive are those of the source. No stated cut-off is given here; in the data, active = GI50 up to about 1.1 µM and inactive = higher. Some results are limits rather than exact numbers.

On to `Nc1ccc(C2SCC(=O)N2NS(=O)(=O)c2cccc(C(=O)O)c2)cc1` (stereo not given), for which the GI50 in the test with CAKI-1, with DU-145, in the test on EKVX, with HCC 2998, in the test with HCT-116 and in the test on Hs-578T was > 100 µM (inactive) in each case. In addition, the GI50 in the test on MDA-MB-435 was > 100 µM (inactive); in the test with Malme-3M, 18.1 µM (inactive); in the test on NCI-H226, > 100 µM (inactive); in the test on NCI-H522, > 100 µM (inactive); in the test on OVCAR-3 it was > 100 µM (inactive); in the test with OVCAR-5, > 100 µM (inactive). The GI50 with RXF 393 is > 100 µM (inactive); in the test with SF-295 it was > 100 µM (inactive); in the test on SK-MEL-2 it was > 100 µM (inactive); in the test on SN12C, > 100 µM (inactive); in the test on SNB-75 it was > 100 µM (inactive); with SR, 12.1 µM (inactive). The GI50 in the test with U-251 and in the test on UO-31 was > 100 µM (inactive) in each case.
With `C[C@H]1CC(=O)[C@@]2(O)C#C/C=C\C#C[C@@H]3Nc4c(cc(O)c5c4C(=O)c4ccccc4C5=O)[C@]24O[C@]314`, the GI50 was < 0.001 µM (active) with CAKI-1; 0.00189 µM (active) with DU-145; 0.228 µM (active) with EKVX; 0.00647 µM (active) in the test with HCC 2998; 0.00982 µM (active) in the test on HCT-116; 0.811 µM (active) with Hs-578T. For the same molecule, the GI50 in the test on MDA-MB-435 was 0.0509 µM (active); in the test with Malme-3M, 0.01 µM (active); in the test with NCI-H226, 0.00356 µM (active); with NCI-H522, 0.0504 µM (active); in the test on OVCAR-3 it was 0.136 µM (active); with OVCAR-5, 0.0685 µM (active). For the same molecule, the GI50 is 0.0114 µM (active) with RXF 393; 0.0161 µM (active) in the test on SF-295; 0.478 µM (active) with SK-MEL-2; 0.00296 µM (active) in the test on SN12C; 0.0316 µM (active) in the test on SNB-75; 0.00256 µM (active) with SR. In addition, the values for the GI50 in the test with U-251 and in the test on UO-31 were 0.00701 µM (active) and < 0.001 µM (active), respectively.
`CC(=O)OC1CCC2(C)C(=CCC3C2CCC2(C)C(C(C)C(=O)O)CCC32)C1` (stereo not given): the GI50 with CAKI-1 is > 100 µM (inactive); in the test on DU-145 it was > 100 µM (inactive); in the test with EKVX, 56.9 µM (inactive); with HCC 2998, 57 µM (inactive); in the test with HCT-116, 75.9 µM (inactive); with Hs-578T it was > 100 µM (inactive). The GI50 in the test on MDA-MB-435 was > 100 µM (inactive); with Malme-3M it was > 100 µM (inactive); in the test with NCI-H226, > 100 µM (inactive); in the test on NCI-H522 it was 58.6 µM (inactive); with OVCAR-3 it was > 100 µM (inactive); in the test with OVCAR-5 it was > 100 µM (inactive). Further, the GI50 is 69.5 µM (inactive) in the test with RXF 393; > 100 µM (inactive) in the test with SF-295; > 100 µM (inactive) in the test with SK-MEL-2; > 100 µM (inactive) in the test with SN12C; > 100 µM (inactive) in the test on SNB-75; > 100 µM (inactive) in the test with SR. Also, the GI50 in the test on U-251 was 88.9 µM (inactive); in the test with UO-31, 92 µM (inactive).
With `O=C(c1c2c(cc3c1CC1(Cc4cc5c(cc4C1)CCCC5)C3)CCCC2)C(Br)Br`, the GI50 is 11.3 µM (inactive) with CAKI-1; > 58.5 µM (inactive) in the test with DU-145; 34.7 µM (inactive) in the test with EKVX; 21.5 µM (inactive) in the test with HCC 2998; 14.9 µM (inactive) with HCT-116; 30.8 µM (inactive) with Hs-578T. In addition, the GI50 with MDA-MB-435 is 14 µM (inactive); in the test with Malme-3M, 3.53 µM (inactive); in the test with NCI-H226, 6.38 µM (inactive); in the test on NCI-H522, 1.65 µM (inactive); with OVCAR-3, 18.7 µM (inactive); in the test on OVCAR-5, 22.9 µM (inactive). The GI50 in the test on RXF 393 is 6.73 µM (inactive); in the test with SF-295, 58.6 µM (inactive); in the test with SK-MEL-2 it was 19.2 µM (inactive); in the test with SN12C, 18.6 µM (inactive); in the test on SNB-75 it was 5.08 µM (inactive); in the test with SR, 2.69 µM (inactive). For the same molecule, the values for the GI50 with U-251 and with UO-31 were 16.2 µM (inactive) and 13.8 µM (inactive), respectively.
Regarding `O=C(/C=C/c1ccc(-c2ccccc2[N+](=O)[O-])o1)NCc1ccc(C(=O)NCCc2ccccc2)cc1`, the GI50 with CAKI-1, in the test on DU-145, in the test with EKVX, in the test on HCC 2998, in the test with HCT-116 and with Hs-578T was > 100 µM (inactive) in each case. Besides, the GI50 in the test with MDA-MB-435 was 3.92 µM (inactive); with Malme-3M, > 100 µM (inactive); with NCI-H226, > 100 µM (inactive); in the test on NCI-H522 it was > 100 µM (inactive); in the test with OVCAR-3, > 100 µM (inactive); in the test with OVCAR-5, > 100 µM (inactive). Also, the GI50 was > 100 µM (inactive) with RXF 393; > 100 µM (inactive) with SF-295; 21.2 µM (inactive) in the test with SK-MEL-2; > 100 µM (inactive) in the test on SN12C; > 100 µM (inactive) in the test on SNB-75; 5.62 µM (inactive) in the test with SR. For the same molecule, the GI50 in the test on U-251 and in the test with UO-31 was > 100 µM (inactive) throughout.
Take `COc1ccc(Nc2n[nH]c(NS(=O)(=O)c3cc(C)c(Cl)cc3S)n2)cc1`: the GI50 with CAKI-1, in the test with DU-145, in the test with EKVX, in the test on HCC 2998, in the test with HCT-116 and in the test on Hs-578T was > 100 µM (inactive) each time. Further, the GI50 in the test with MDA-MB-435, in the test on Malme-3M, with NCI-H226, with NCI-H522, in the test with OVCAR-3 and in the test on OVCAR-5 was > 100 µM (inactive) in each case. Besides, the GI50 with RXF 393, with SF-295, with SK-MEL-2, with SN12C, with SNB-75 and in the test with SR was > 100 µM (inactive) throughout. Besides, the GI50 with U-251 and in the test on UO-31 was > 100 µM (inactive) each time.
Turning to `COC(=O)C1(Cc2ccc(C)cc2)Cc2c(C)cccc2C1=O` (stereo not given), the GI50 is 25.7 µM (inactive) in the test with CAKI-1; 15.3 µM (inactive) in the test on DU-145; 18.2 µM (inactive) with EKVX; 16.8 µM (inactive) in the test with HCC 2998; 13.3 µM (inactive) in the test with HCT-116; 15.9 µM (inactive) in the test on Hs-578T. Further, the GI50 in the test with MDA-MB-435 is 3.08 µM (inactive); in the test with Malme-3M, 13 µM (inactive); in the test on NCI-H226 it was 15.3 µM (inactive); in the test with NCI-H522, 11.2 µM (inactive); in the test on OVCAR-3, 11.7 µM (inactive); in the test with OVCAR-5, 24.6 µM (inactive). Also, the GI50 was 9.71 µM (inactive) with RXF 393; 15.4 µM (inactive) in the test on SF-295; 12.9 µM (inactive) with SK-MEL-2; 18.3 µM (inactive) in the test on SN12C; 26.4 µM (inactive) with SNB-75; 7.24 µM (inactive) in the test on SR. Further, the GI50 with U-251 is 17.1 µM (inactive); with UO-31, 24.7 µM (inactive).
On to `CCN(CC)CCNC(=O)c1ccc(I)cc1`, for which the GI50 in the test on CAKI-1 was 60.4 µM (inactive); in the test with DU-145 it was > 100 µM (inactive); in the test with EKVX it was > 100 µM (inactive); in the test with HCC 2998 it was > 100 µM (inactive); in the test with HCT-116, > 100 µM (inactive); in the test on Hs-578T, > 100 µM (inactive). Besides, the GI50 in the test on MDA-MB-435, in the test on Malme-3M, in the test with NCI-H226, in the test on NCI-H522, with OVCAR-3 and in the test on OVCAR-5 was > 100 µM (inactive) throughout. Also, the GI50 with RXF 393 was > 100 µM (inactive); in the test on SF-295, > 100 µM (inactive); with SK-MEL-2 it was > 100 µM (inactive); in the test on SN12C, > 100 µM (inactive); in the test with SNB-75, 33.8 µM (inactive); in the test on SR, > 100 µM (inactive). The GI50 in the test with U-251 and with UO-31 was > 100 µM (inactive) throughout.
Turning to `CCN(CCCl)c1cc(CN(C)C)cc(NC(=O)c2ccc(C(=O)Nc3cc(CN(C)C)cc(N(CC)CCCl)c3)cc2)c1`, the GI50 in the test on CAKI-1 is 0.272 µM (active); with DU-145, 0.504 µM (active); in the test with EKVX it was 1.31 µM (inactive); in the test on HCC 2998, 0.0762 µM (active); in the test with HCT-116, 0.0962 µM (active); in the test with Hs-578T, 0.103 µM (active). Also, the GI50 with MDA-MB-435 is 0.162 µM (active); in the test with Malme-3M, 0.292 µM (active); in the test on NCI-H226 it was 0.0697 µM (active); with NCI-H522, 0.0231 µM (active); in the test on OVCAR-3, 0.384 µM (active); with OVCAR-5 it was 0.24 µM (active). Besides, the GI50 in the test with RXF 393 is 0.0278 µM (active); in the test with SF-295, 0.182 µM (active); with SK-MEL-2, 0.12 µM (active); in the test with SN12C, 0.0502 µM (active); in the test with SNB-75, 0.114 µM (active); in the test on SR, 0.0228 µM (active). Moreover, the results for the GI50 with U-251 and with UO-31 were 0.0723 µM (active) and 5.21 µM (inactive), respectively.
For the molecule `Cc1ccc2c(n1)C(=O)c1cc(C)c(C)cc1C2=O`, the GI50 in the test on CAKI-1 is > 100 µM (inactive); with DU-145, > 100 µM (inactive); in the test on EKVX it was 50.8 µM (inactive); in the test with HCC 2998 it was 98.2 µM (inactive); with HCT-116, 47.6 µM (inactive); with Hs-578T, 44.2 µM (inactive). Besides, the GI50 in the test with MDA-MB-435 was 85.3 µM (inactive); in the test with Malme-3M, 43.1 µM (inactive); with NCI-H226, > 100 µM (inactive); in the test with NCI-H522 it was 20.6 µM (inactive); with OVCAR-3 it was 20.5 µM (inactive); in the test on OVCAR-5, 68.9 µM (inactive). The GI50 with RXF 393 was 34 µM (inactive); with SF-295, > 100 µM (inactive); with SK-MEL-2, > 100 µM (inactive); in the test with SN12C, 56.9 µM (inactive); in the test with SNB-75, 27.5 µM (inactive); with SR it was 30.2 µM (inactive). Also, the figures for the GI50 in the test with U-251 and in the test on UO-31 were 27.4 µM (inactive) and 57.8 µM (inactive), respectively.
